# Laboratory results from patent US20240209036A1, “PEPTIDES AND METHODS OF USE” (priority 2021, published 2024).
# “And” between values parts separate entries of the source, which are not always exact repeats. Identical values can stand only once. Ends that are not written are not given here.
# Columns and labels:
# [1] = test system: cecal ligation and puncture (CLP) rat model of intestinal necrosis; test: Cecal ligation and puncture (CLP) survival model; type: in vivo; conditions: for survival, multi-dose regimen: CLP rats, 40 mg/kg at 0.5, 24, 48 and 72 hours after surgery
# Protocol: The previously established CLP model was utilized with modifications. Male Long-Evans rats (250-300 grams) were induced using 5% isoflurane with oxygen and anesthesia was maintained by isoflurane delivered via nose cone at 1.5-2% with oxygen. Adequate anesthesia was confirmed with a toe pinch. The surgical area (lower abdominal quadrants) was shaved, cleaned with 10% iodine and subsequently cleaned with 70% ethanol for a total of three times. For pain management, buprenorphine-SR (1 mg/kg) was given subcutaneously pre-op. For the surgical procedure, animals were in the supine position with their heads oriented away from the operator. After placing a sterile drape, a longitudinal midline incision (approximately 3-4 cm) was made with a sterile scalpel. After the initial incision, small scissors were used to enter the peritoneal cavity. The linea alba of the abdominal musculature was dissected away for intermuscular incision of fascial and peritoneal layers. The cecum was located and exteriorized, the remainder of the bowel was left in the peritoneal cavity. The mesentery of the cecum was dissected away with care taken to avoid damage to the cecal branch of the ileocecal artery and avoid bleeding complications. The cecum was ligated at 75% using sterile 3-0 non-absorbable suture. The cecum was perforated twice by through-and-through punctures using a sterile 18-gauge needle midway between the ligation and the tip of the cecum in a mesenteric-to-antimesenteric direction. The cecum was relocated into the abdominal cavity. The peritoneum was closed using 4-0 non-absorbable sutures and the skin was closed with sterile metallic wound clips. The animals received 5 mL of prewarmed (37° C.) normal saline subcutaneously for recovery. […] The peptide, consisting of the amino acid sequence […] (SEQ ID NO: 2) with a monodisperse, 24mer polyethylene glycol (PEG) tail, was manufactured by PolyPeptide Group (San Diego, CA) to >95% purity as verified by HPLC and mass spectrometry analysis. Lyophilized RLS-0071 was solubilized in 0.05 M Histidine buffer and pH adjusted to 6.5. […] Animals were monitored every 30 minutes for at least two hours post-surgery. Once bright, alert, and responsive, the animals were placed back into their home cage. A quantitative assessment of morbidity was conducted on the animals twice a day for the duration of the study. (Shrum, B., Anantha, R. V., Xu, S. X. et al. A robust scoring system to evaluate sepsis severity in an animal model. BMC Res Notes 7, 233 (2014). https://doi.org/10.1186/1756-0500-7-233). Scoring criteria included appearance, level of consciousness, activity, response to stimulus, eyes open vs. closed, respiration rate and respiration quality. […] The animals were subsequently monitored at a minimum of twice/day. […]
# [2] = test system: free DNA in plasma (biomarker for NETs); test: Plasma free DNA by PicoGreen in CLP rats; type: in vivo, rat; conditions: single dose RLS-0071, 24 hours post-surgery
# Protocol: (§1) Blood samples were collected before surgery (pre-bleed) and 24 hours after surgery. Plasma was isolated from the blood and analyzed for free DNA concentration and cytokines levels as described below.
# Free DNA was measured by PicoGreen in rat plasma samples as previously described Briefly, plasma samples were diluted in 10 mM Tris-HCl, 1 mM EDTA, pH 8.0 (TE) buffer and 50 uL of each sample was added to the wells along with 50 uL of a 1:200 dilution of PicoGreen (Life Technologies, Carlsbad, CA, USA) and incubated at room temperature for 10 minutes, protected from light. A DNA standard curve was prepared in TE buffer. The fluorescence was then read at an excitation wavelength of 485 nm and an emission wavelength of 520 nm using a BioTek microplate reader. All free DNA measurements were done in triplicate.
# [3] = test system: IL-6; test: Plasma IL-6 ELISA in CLP rats; type: in vivo, rat; conditions: single dose RLS-0071, 24 hours post-surgery
# Protocol: as §1
# The Rat IL-6 ELISA was purchased from R&D Systems. Plasma samples from experimental animals were run according to the manufacturer's instructions. Briefly, diluted rat plasma samples were added to wells pre-coated with capture IL-6 antibodies overnight. The plate was blocked for 60 min at room temperature with 1% BSA. 100 uL of plasma samples (diluted 1:4) or standards was added to the plate and incubated at room temperature for 2 hrs, then any unbound components were removed by washing. Next, 100 μL of detection IL-6 antibody (diluted 1:60) was added and incubated for 2 hrs at room temperature and washed. Next, 100 μL of streptavidin-horseradish peroxidase (HIRP) conjugate (diluted 1:40) was added and incubated in the dark for 20 minutes at room temperature. Following washing, 100 μL of 3,3′,5,5′-tetramethylbenzidine (TMB) substrate was added for approximately 5 minutes at room temperature. The reaction was stopped with the addition of 100 μL of sulfuric acid and absorbance measured at 450 nm using a BioTek microplate reader. Sample concentrations were calculated using an IL-6 standard curve made with 1:2 serial dilutions.
# [4] = test system: complement system; conditions: previously demonstrated in vitro assays; cited from earlier work
Substance,"survival, multi-dose regimen [1]","survival ([1]; male Long-Evans rats, 75% CLP, single dose 40 mg/kg i.v. 30 minutes after surgery, assessed up to 5 days, 40 mg/kg)",increase in survival compared to no-rescue treatment group ([1]; single dose 40 mg/kg i.v. 30 minutes after surgery) [fold],level of free DNA in blood compared to animals not receiving treatment [2],IL-6 level in blood compared with no-rescue-intervention animals [3],inhibition of the complement system [4]
"IALILEPICCQERAA-PEG24 (IALILEPICCQERAA-dPEG24; cysteine pairing not given here) [RLS-0071, 15 amino acid peptide with a C-terminal monodisperse 24-mer PEGylated moiety]",significant increase in survival,80% and 50%,2.5,reduction in the level of free DNA,reduction in IL-6,strong inhibition of the complement system
"IALILEP(Sar)CCQERAA (IALILEPXCCQERAA; sarcosine at position 8; MOD_RES (8)..(8) Sarcosine) [RLS-0088, PA peptide with isoleucine at position 8 replaced by sarcosine]",increase in survival,–,–,–,–,–
